Source: ChEMBL document CHEMBL1201862, “PubChem BioAssay data set” (2004)
Where “and” joins values, the source holds several entries; their conditions need not be identical. Equal entries are not always repeated.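 Grown in 96-well plates, cells were treated for 48 hours with each compound at five concentrations. Insufficient inhibition: endpoint recorded as highest concentration tested. GI50 is the concentration that inhibits growth by half.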 Calls of active or inactive are those of the source. No stated cut-off is given here; in the data, active = GI50 up to about 1.1 µM and inactive = higher.

How the values were obtained:
Assay in all cases: NCI-60 cell line screen, 48 h
[1] = system: M14
[2] = system: UACC-257
[3] = system: OVCAR-4
[4] = system: SK-MEL-5
[5] = system: UACC-62
[6] = system: A498
[7] = system: 786-0
[8] = system: K562
[9] = system: MOLT-4
[10] = system: NCI/ADR-RES
[11] = system: HT-29
[12] = system: U-251
[13] = system: MDA-N
[14] = system: SF-268
[15] = system: HOP-62
[16] = system: EKVX
[17] = system: SNB-19
[18] = system: ACHN
[19] = system: SN12C
[20] = system: RPMI-8226

SMILES	GI50 [1]	GI50 [2]	GI50 [3]	GI50 [4]	GI50 [5]	GI50 [6]	GI50 [7]	GI50 [8]	GI50 [9]	GI50 [10]	GI50 [11]	GI50 [12]	GI50 [13]	GI50 [14]	GI50 [15]	GI50 [16]	GI50 [17]	GI50 [18]	GI50 [19]	GI50 [20]
O=C(CCN1CCCCC1)Nc1ccc2c(c1)C(=O)c1ccc(NC(=O)CCN3CCCCC3)cc1C2=O	5.73 µM (inactive)	16.3 µM (inactive)	3.5 µM (inactive)	5.71 µM (inactive)	19.9 µM (inactive)	13.7 µM (inactive)	1.61 µM (inactive)	2.25 µM (inactive)	3.83 µM (inactive)	10.9 µM (inactive)	3.24 µM (inactive)	4.98 µM (inactive)	1.65 µM (inactive)	7.96 µM (inactive)	2.12 µM (inactive)	15.6 µM (inactive)	4.48 µM (inactive)	11.6 µM (inactive)	5.81 µM (inactive)	4.43 µM (inactive)
CCOc1cc2c(cc1O)CC[C@@H]1[C@@H]2CC[C@]2(C)[C@@H](O)CC[C@@H]12	0.0261 µM (active)	< 0.01 µM (active)	12.4 µM (inactive)	0.0188 µM (active)	0.019 µM (active)	2.09 µM (inactive)	0.0301 µM (active)	< 0.0171 µM (active)	0.0401 µM (active)	0.0173 µM (active)	4.88 µM (inactive)	0.0803 µM (active)	0.0107 µM (active)	0.0612 µM (active)	0.0447 µM (active)	0.497 µM (active)	0.0334 µM (active)	0.0123 µM (active)	0.0778 µM (active)	0.0252 µM (active)
CCC(C)C1=C(O)[N+]2([O-])Oc3ccc(-c4c(O)c(O)c(-c5ccc(OC(C)=O)cc5)c(OC(C)=O)c4OC(C)=O)cc3OC2(C(C)CC)C(=O)N1O (stereo unspecified)	> 50 µM (inactive)	> 50 µM (inactive)	12.9 µM (inactive) and 14.9 µM (inactive)	> 50 µM (inactive) and 29.2 µM (inactive)	> 50 µM (inactive) and 31.3 µM (inactive)	19.3 µM (inactive)	> 50 µM (inactive)	28.8 µM (inactive) and 15.4 µM (inactive)	23.7 µM (inactive) and 14.4 µM (inactive)	> 50 µM (inactive)	> 50 µM (inactive)	> 50 µM (inactive)	36.3 µM (inactive) and 24.3 µM (inactive)	41.2 µM (inactive)	> 50 µM (inactive)	> 50 µM (inactive)	> 50 µM (inactive)	> 50 µM (inactive)	42.9 µM (inactive)	> 50 µM (inactive) and 33.8 µM (inactive)
COc1ccc(CCNC(=O)Cc2cc(OC)c(OC)cc2CO)cc1OC	> 100 µM (inactive)	> 100 µM (inactive)	> 100 µM (inactive)	> 100 µM (inactive)	> 100 µM (inactive)	> 100 µM (inactive)	> 100 µM (inactive)	> 100 µM (inactive)	> 100 µM (inactive)	> 100 µM (inactive)	> 100 µM (inactive)	> 100 µM (inactive)	> 100 µM (inactive)	> 100 µM (inactive)	> 100 µM (inactive)	> 100 µM (inactive)		> 100 µM (inactive)	> 100 µM (inactive)	> 100 µM (inactive)
Cc1cc2c(C)cc(=O)[nH]c2cc1N	> 100 µM (inactive)	> 100 µM (inactive)	> 100 µM (inactive)	> 100 µM (inactive)	35.4 µM (inactive)	> 100 µM (inactive)	> 100 µM (inactive)	> 100 µM (inactive)	> 100 µM (inactive)	> 100 µM (inactive)	81.1 µM (inactive)	72.9 µM (inactive)	> 100 µM (inactive)		> 100 µM (inactive)	67.6 µM (inactive)	> 100 µM (inactive)	> 100 µM (inactive)	> 100 µM (inactive)	> 100 µM (inactive)
Cc1nc2ccc(S(=O)(=O)O)cc2c(=O)n1-c1ccc(C(=O)NN2C(=O)C(Cl)C2c2ccccc2O)cc1 (stereo unspecified)	> 100 µM (inactive)	> 100 µM (inactive)	> 100 µM (inactive)	> 100 µM (inactive)		> 100 µM (inactive)	> 100 µM (inactive)	> 100 µM (inactive)	> 100 µM (inactive)	> 100 µM (inactive)	> 100 µM (inactive)	> 100 µM (inactive)	> 100 µM (inactive)	> 100 µM (inactive)	53.5 µM (inactive)	60.1 µM (inactive)	> 100 µM (inactive)	> 100 µM (inactive)	> 100 µM (inactive)	> 100 µM (inactive)
COC(=O)c1c(C(=O)OC)c2c3ccccc3n(C)c2c2c1c1ccccc1n2C	> 100 µM (inactive)	> 100 µM (inactive)	31.4 µM (inactive)	74.5 µM (inactive)	> 100 µM (inactive)	95.1 µM (inactive)	34.2 µM (inactive)	> 100 µM (inactive)	> 100 µM (inactive)	> 100 µM (inactive)	> 100 µM (inactive)	28.1 µM (inactive)	> 100 µM (inactive)		19.3 µM (inactive)	47.1 µM (inactive)	27.6 µM (inactive)	> 100 µM (inactive)	> 100 µM (inactive)	> 100 µM (inactive)
O=S(=O)(O)c1c(Cl)cc(O)c2ncccc12	> 100 µM (inactive)	> 100 µM (inactive)	> 100 µM (inactive)	> 100 µM (inactive)	> 100 µM (inactive)	> 100 µM (inactive)	> 100 µM (inactive)	> 100 µM (inactive)	> 100 µM (inactive)	> 100 µM (inactive)	> 100 µM (inactive)	> 100 µM (inactive)	> 100 µM (inactive)		> 100 µM (inactive)	> 100 µM (inactive)	> 100 µM (inactive)	> 100 µM (inactive)	> 100 µM (inactive)	> 100 µM (inactive)
CCCC(=O)OCC1OC(n2cc(F)c(=O)[nH]c2=O)C(F)C1O (stereo unspecified)	18.8 µM (inactive)	> 59.7 µM (inactive)	> 100 µM (inactive)	> 40.4 µM (inactive)	> 31.5 µM (inactive)	8.39 µM (inactive)	30.6 µM (inactive)	6.35 µM (inactive)	> 35.6 µM (inactive)	53.3 µM (inactive)	> 86.3 µM (inactive)	10.8 µM (inactive)	14.9 µM (inactive)	> 26.4 µM (inactive)	4.57 µM (inactive)	> 71.4 µM (inactive)	78.5 µM (inactive)	10.9 µM (inactive)	> 82.8 µM (inactive)	6.3 µM (inactive)
COc1ccc(C(=C2C(=O)OC(=O)C2=C(C)C)c2ccc(OC)cc2)cc1	85.1 µM (inactive)	> 100 µM (inactive)	29.6 µM (inactive)	> 100 µM (inactive)	> 100 µM (inactive)	> 100 µM (inactive)	> 100 µM (inactive)		57.4 µM (inactive)	39.5 µM (inactive)	48 µM (inactive)	33.4 µM (inactive)	> 100 µM (inactive)	> 100 µM (inactive)	45.8 µM (inactive)	27 µM (inactive)	57.4 µM (inactive)	> 100 µM (inactive)	> 100 µM (inactive)	28.8 µM (inactive)
CC1=NN(c2nc(N)nc(/C(C#N)=C/c3cccn3-c3cc(Cl)cc(Cl)c3)n2)C(C)(C)C1	> 100 µM (inactive)	> 100 µM (inactive)	> 100 µM (inactive)	> 100 µM (inactive)	> 100 µM (inactive)	> 100 µM (inactive)	> 100 µM (inactive)			> 100 µM (inactive)	> 100 µM (inactive)	7.82 µM (inactive)	> 100 µM (inactive)	15.5 µM (inactive)	10.1 µM (inactive)	> 100 µM (inactive)	40.6 µM (inactive)	> 100 µM (inactive)	35.2 µM (inactive)	> 100 µM (inactive)
CC(NNC(=O)c1cc[n+]([BH2-]C#N)cc1)C(F)(F)F (stereo unspecified)	> 100 µM (inactive)	> 100 µM (inactive)	> 100 µM (inactive)	> 100 µM (inactive)	> 100 µM (inactive)	> 100 µM (inactive)	> 100 µM (inactive)	> 100 µM (inactive)	> 100 µM (inactive)	> 100 µM (inactive)	> 100 µM (inactive)	> 100 µM (inactive)	> 100 µM (inactive)	> 100 µM (inactive)	> 100 µM (inactive)	> 100 µM (inactive)	> 100 µM (inactive)	> 100 µM (inactive)	> 100 µM (inactive)	> 100 µM (inactive)
CC1(C)CC[C@]2(C(=O)O)CC[C@]3(C)C(=CC[C@@H]4[C@@]5(C)C[C@H](O)[C@H](O)[C@@](C)(C(=O)O)[C@@H]5CC[C@]43C)[C@@H]2C1	> 100 µM (inactive)	> 100 µM (inactive)	> 82.2 µM (inactive)	> 100 µM (inactive)	> 54.6 µM (inactive)	> 100 µM (inactive)	> 100 µM (inactive)	78.3 µM (inactive)	> 100 µM (inactive)	> 100 µM (inactive)	> 100 µM (inactive)	> 100 µM (inactive)	> 100 µM (inactive)	> 100 µM (inactive)	> 100 µM (inactive)	> 100 µM (inactive)	> 100 µM (inactive)	> 100 µM (inactive)	> 100 µM (inactive)	> 86.9 µM (inactive)
CN(C)Cc1cc(C(=O)/C=C/c2ccccc2)cc(CN(C)C)c1O	20.7 µM (inactive)	13.3 µM (inactive)	20.4 µM (inactive)	16.6 µM (inactive)		21.8 µM (inactive)	30.1 µM (inactive)	14.2 µM (inactive)	16.8 µM (inactive)	26.5 µM (inactive)	16.9 µM (inactive)	35.3 µM (inactive)	13.3 µM (inactive)	32.5 µM (inactive)	32.4 µM (inactive)	33.6 µM (inactive)	29.1 µM (inactive)	15.8 µM (inactive)	11.7 µM (inactive)	11.8 µM (inactive)
